The source of these data is PMC11363325, “A Novel Prodrug Strategy Based on Reversibly Degradable Guanidine Imides for High Oral Bioavailability and Prolonged Pharmacokinetics of Broad-Spectrum Anti-influenza Agents” (ACS Central Science, 2024).

By EC50 is commonly meant the concentration at which the effect is half-maximal. A high value points to a less potent agent.

Where a name gives a salt, the structure may show the parent alone.

Assay [1] concerns rgPR8(H275Y), A/Puerto Rico/8/1934 with the H275Y mutation in NA.
In assay [2] the test system is A/Korea/2785/2009 (H1N1) with the H275Y mutation in NA (KR2785).
The subject of assay [3] is rgA/Korea/09/2009Δ53–60 with the H275Y mutation in NA (rgKR09).
The test system of assay [4] is rgA/Korea/09/2009Δ53–60(H275Y), A/H1N1(H275Y). The arrangement: species or system BALB/c mice. The conditions noted are these: mouse, in vivo, po, 10 mg/kg.

Consider `CCC(CC)O[C@@H]1C=C(C(=O)O)C[C@H](N=C(N2C(=O)c3ccccc3C2=O)N2C(=O)c3ccccc3C2=O)[C@H]1NC(C)=O` [OSC-GCDI(P)], for which the half-maximal effective concentration (EC50) came to 0.48 ± 0.01 µM in assay [1], 4.61 ± 0.35 µM in assay [2] and 4.61 ± 0.05 µM in assay [3].

`CCC(CC)O[C@@H]1C=C(C(=O)O)C[C@H](N=C(N2C(=O)C3CCC(C)CC3C2=O)N2C(=O)C3CCC(C)CC3C2=O)[C@H]1NC(C)=O` (stereo partly drawn) [OSC-GCDI(CM)]: the EC50 in assay [1] was determined as 1.2 ± 0.05 µM; in assay [2] it was 14 ± 5.15 µM; in assay [3], 4.43 ± 0.25 µM.

In the case of `NC12CC3CC(CC(C3)C1)C2` [AMT, Amantadine, reference compound], the EC50 in assay [1], in assay [2] and in assay [3] was above 100 µM in each case.

For `CCC(CC)O[C@@H]1C=C(C(=O)O)C[C@H](N=C(N2C(=O)CCC2=O)N2C(=O)CCC2=O)[C@H]1NC(C)=O` [OSC-GCDI(S)], the values for the EC50 in assay [1], in assay [2] and in assay [3] were 0.99 ± 0.01 µM, 8.55 ± 2.15 µM and 2.2 ± 0.1 µM, respectively.

Regarding `CCC(CC)O[C@@H]1C=C(C(=O)O)C[C@H](NC(=N)N)[C@H]1NC(C)=O` [GOC, guanidino oseltamivir carboxylate, reference compound], the results for the concentration for a half-maximal effect (EC50) in assay [1], in assay [2] and in assay [3] were 0.09 ± 0.01 µM, 0.78 ± 0.01 µM and 0.11 ± 0.01 µM, respectively. Further, the “resistance factor (RF), ratio of EC50 against rgPR8(H275Y) to wild-type rgPR8” value in assay [1] stood at 18.0.

For `CCC(CC)O[C@@H]1C=C(C(=O)O)C[C@H](NC(=N)N)[C@H]1NC(C)=O` [GOC·TFA, guanidino oseltamivir carboxylate], the survival rate entry in assay [4] is listed as “all mice were eventually dead”.

As for `CCC(CC)O[C@@H]1C=C(C(=O)O)C[C@H](N)[C@H]1NC(C)=O` [OSC, oseltamivir carboxylate, reference compound], the EC50 in assay [1] came out at 13.7 ± 2.7 µM; in assay [2], 56.61 ± 0.3 µM; in assay [3], 25.9 ± 0.65 µM. Moreover, the “resistance factor (RF), ratio of EC50 against rgPR8(H275Y) to wild-type rgPR8” value in assay [1] was 274.

Turning to `CCC(CC)O[C@@H]1C=C(C(=O)O)C[C@H](N=C(N2C(=O)[C@H]3CCCC[C@H]3C2=O)N2C(=O)[C@H]3CCCC[C@H]3C2=O)[C@H]1NC(C)=O` [OSC-GCDI(C)], the values for the EC50 in assay [1], in assay [2] and in assay [3] were 0.49 ± 0.01 µM, 5.91 ± 0.85 µM and 3.7 ± 0.5 µM, respectively.

As for `CCCCC1CC(=O)N(C(=N[C@H]2CC(C(=O)O)=C[C@@H](OC(CC)CC)[C@@H]2NC(C)=O)N2C(=O)CC(CCCC)C2=O)C1=O` (stereo partly drawn) [OSC-GCDI(B)], the values for the EC50 in assay [1], in assay [2] and in assay [3] were 3.41 ± 0.01 µM, 17.6 ± 2.9 µM and 12.9 ± 0.65 µM, respectively.

For the compound `CCC(CC)O[C@@H]1C=C(C(=O)O)C[C@H](N=C(N2C(=O)CC(C)C2=O)N2C(=O)CC(C)C2=O)[C@H]1NC(C)=O` (stereo partly drawn) [OSC-GCDI(M)], the EC50 turned out to be 0.74 ± 0.05 µM in assay [1], 4.61 ± 0.35 µM in assay [2] and 1.96 ± 0.15 µM in assay [3].

`CCC(CC)O[C@@H]1C=C(C(=O)O)C[C@H](N=C(N2C(=O)[C@H]3CC=CC[C@H]3C2=O)N2C(=O)[C@H]3CC=CC[C@H]3C2=O)[C@H]1NC(C)=O` [OSC-GCDI(Ce)]: the EC50 amounted to 1.9 ± 0.1 µM in assay [1], 13.22 ± 0.1 µM in assay [2] and 5.21 ± 0.02 µM in assay [3].

For `CCC(CC)O[C@@H]1C=C(C(=O)O)C[C@H](N=C(N2C(=O)CC(C)(C)C2=O)N2C(=O)CC(C)(C)C2=O)[C@H]1NC(C)=O` [OSC-GCDI(D)], the figures for the EC50 in assay [1], in assay [2] and in assay [3] were 1.52 ± 0.2 µM, 9.25 ± 2.4 µM and 4.37 ± 1.1 µM, respectively.

Take `NC(=O)c1ncn([C@@H]2O[C@H](CO)[C@@H](O)[C@H]2O)n1` [RBV, Ribavirin, reference compound]: the figures for the EC50 in assay [1], in assay [2] and in assay [3] were 16.4 ± 0.45 µM, 18.3 ± 1.3 µM and 15.79 ± 0.15 µM, respectively.
